Molecular target: T1, Human C5 (Homo sapiens, UniProt P01031)
T1 construct: purchased Complement Technology
Experiment: Red blood cell (RBC) hemolysis assay, luminescent (Example 28, Table 32)
Assay type: cell-based
Conditions: sheep EA cells, 1.5% C5-depleted human serum, 0.5 nM human C5, 1 hour at 37° C., luminescence (Table 32)
Experimental: Sheep red blood cells coated with rabbit anti-sheep erythrocyte antiserum (EA cells; Complement Technology, Tyler, Tex.) were used to assay compound inhibitory activity of the classical complement activation pathway. Briefly, the EA cells were washed once and resuspended in the same volume of GVB++ buffer (Complement Technology, Tyler, Tex.). 25 μL of EA cells were then distributed into each well of 384-well tissue culture plates using Apricot iPipette Pro (Apricot Designs; Covina, Calif.). Compounds were tested in 10 points of final concentrations ranging from 16.67 μM to 1.65 μM in a 6-fold titration series. Compounds were dispensed into 384-well plates from 6.7 mM and 3.35 μM DMSO working stocks using an HP Digital Dispenser (HP; Corvallis, Oreg.). The reactions also contained 1.5% (v/v) C5-depleted human serum (Complement Technology). Hemolysis was induced by addition of human C5 (Complement Technology) at a concentration of 0.5 nM and plates were incubated for 1 hour at 37° C. in a cell culture incubator. The extent of hemolysis was measured by ability of released hemoglobin to catalyze luminol in the presence of hydrogen peroxide. Luminescence was then measured using a plate reader. Luminescence measurements were used to prepare a dose-response curve. From the curve, the half maximal inhibitory concentration (IC50) for each compound was determined, where the IC50 represents the concentration of each compound needed to reduce red blood cell hemolysis by half.

T1 sequence (P01031 19-1676): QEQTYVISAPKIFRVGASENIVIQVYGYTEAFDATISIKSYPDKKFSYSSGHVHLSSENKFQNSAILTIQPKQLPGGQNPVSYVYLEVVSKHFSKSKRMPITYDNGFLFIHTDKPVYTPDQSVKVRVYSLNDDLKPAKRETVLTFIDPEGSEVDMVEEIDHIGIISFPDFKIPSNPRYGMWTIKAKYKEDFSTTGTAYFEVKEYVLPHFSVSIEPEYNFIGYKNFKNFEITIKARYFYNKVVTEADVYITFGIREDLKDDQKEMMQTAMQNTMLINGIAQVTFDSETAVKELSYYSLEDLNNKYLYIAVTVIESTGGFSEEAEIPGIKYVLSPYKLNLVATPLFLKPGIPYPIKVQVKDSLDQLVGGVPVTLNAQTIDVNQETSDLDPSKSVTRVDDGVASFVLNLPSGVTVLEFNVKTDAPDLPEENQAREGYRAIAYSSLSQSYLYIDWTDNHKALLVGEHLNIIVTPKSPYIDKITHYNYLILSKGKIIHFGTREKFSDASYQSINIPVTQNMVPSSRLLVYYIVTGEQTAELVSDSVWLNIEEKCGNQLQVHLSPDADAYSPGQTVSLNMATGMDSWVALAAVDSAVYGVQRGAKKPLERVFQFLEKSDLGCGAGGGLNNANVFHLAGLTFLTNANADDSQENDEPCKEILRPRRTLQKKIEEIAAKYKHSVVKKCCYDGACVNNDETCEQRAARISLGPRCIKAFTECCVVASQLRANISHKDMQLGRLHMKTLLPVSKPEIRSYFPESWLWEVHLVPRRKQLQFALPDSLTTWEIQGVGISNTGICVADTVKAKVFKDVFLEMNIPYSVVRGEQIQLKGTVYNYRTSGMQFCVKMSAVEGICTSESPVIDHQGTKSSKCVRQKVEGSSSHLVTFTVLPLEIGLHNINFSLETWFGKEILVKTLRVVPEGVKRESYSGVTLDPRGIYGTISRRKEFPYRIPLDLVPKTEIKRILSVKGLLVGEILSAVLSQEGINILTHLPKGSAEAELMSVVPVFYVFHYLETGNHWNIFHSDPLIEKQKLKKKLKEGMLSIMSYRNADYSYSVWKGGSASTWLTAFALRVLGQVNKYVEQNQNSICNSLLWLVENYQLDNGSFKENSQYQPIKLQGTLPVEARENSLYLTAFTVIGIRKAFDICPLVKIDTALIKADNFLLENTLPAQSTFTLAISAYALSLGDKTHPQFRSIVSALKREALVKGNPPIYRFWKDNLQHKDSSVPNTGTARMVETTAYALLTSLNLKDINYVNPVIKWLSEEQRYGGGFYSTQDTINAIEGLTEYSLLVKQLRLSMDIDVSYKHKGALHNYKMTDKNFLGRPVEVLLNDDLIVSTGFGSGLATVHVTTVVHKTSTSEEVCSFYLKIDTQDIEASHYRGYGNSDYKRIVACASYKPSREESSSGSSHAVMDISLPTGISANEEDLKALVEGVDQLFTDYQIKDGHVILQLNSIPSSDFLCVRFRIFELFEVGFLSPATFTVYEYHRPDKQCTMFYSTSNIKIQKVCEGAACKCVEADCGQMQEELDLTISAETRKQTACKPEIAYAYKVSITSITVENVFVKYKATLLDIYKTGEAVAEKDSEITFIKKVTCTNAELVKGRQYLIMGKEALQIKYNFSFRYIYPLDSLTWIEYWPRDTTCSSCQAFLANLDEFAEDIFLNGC

Row | SMILES | IC50
1 | COc1cc(CC(=O)N[C@@H]2CNC[C@@H]2F)ccc1CN1C(=O)N(c2ccc(OC)c(OCCCC3CC3)c2)CC[C@@H]1C [SC0130] | 1.7 nM
2 | CCCCCOc1cc(N2CC[C@H](C)N(Cc3ccnc4c3c(Cl)cn4CCOCCOCCOC)C2=O)ccc1OC [SC0131] | 1.7 nM
3 | CCCCCOc1cc(N2CC[C@H](C)N(Cc3cccc4c3c(Cl)c(C)n4CC(=O)N(C)C)C2=O)ccc1OC [SC0132] | 1.7 nM
4 | CCCCCOc1cc(N2CC[C@H](C)N(Cc3ccnc4c3c(Cl)cn4CC(=O)N3CC(O)(C(F)(F)F)C3)C2=O)ccc1OC [SC0133] | 1.7 nM
5 | COc1cc(CC(=O)N(C)C)ccc1CN1C(=O)N(c2ccc(OC)c(OCCCC3CC3)c2)CC[C@@H]1C [SC0135] | 1.8 nM
6 | COc1cc(CC(=O)N[C@@H]2CN(CCO)C[C@@H]2F)ccc1CN1C(=O)N(c2ccc(OC)c(OCCCC3CC3)c2)CC[C@@H]1C [SC0136] | 1.8 nM
7 | COc1cc(Cc2cnccn2)ccc1CN1C(=O)N(c2ccc(OC)c(OCCCC3CC3)c2)CC[C@@H]1C [SC0138] | 1.8 nM
8 | COc1cc(CC(=O)N2CCOCC2)ccc1CN1C(=O)N(c2ccc(OC)c(OCCCC3CC3)c2)CC[C@@H]1C [SC0139] | 1.9 nM
9 | COc1cc(CC(=O)N2CC[C@@H](N(C)C)C2)ccc1CN1C(=O)N(c2ccc(OC)c(OCCCC3CC3)c2)CC[C@@H]1C [SC0140] | 2.1 nM
10 | CCN1CC[C@H](NC(=O)Cc2ccc(CN3C(=O)N(c4ccc(OC)c(OCCCC5CC5)c4)CC[C@@H]3C)c(OC)c2)C1 [SC0141] | 2.1 nM
11 | COc1cc(CC(=O)N2CCOC(CN(C)C)C2)ccc1CN1C(=O)N(c2ccc(OC)c(OCCCC3CC3)c2)CC[C@@H]1C (stereo partly shown) [SC0142] | 2.1 nM
12 | CCCCCOc1cc(N2CC[C@H](C)N(Cc3ccnc4c3c(Cl)cn4CC(=O)N[C@H]3CCNC3)C2=O)ccc1OC [SC0143] | 2.1 nM
13 | COc1ccc(N2CC[C@H](C)N(Cc3cccc4c3c(Cl)cn4CC(=O)N(C)C)C2=O)cc1OCCCCC1CC1 [SC0145] | 2.1 nM
14 | CCCCCOc1cc(N2CC[C@H](C)N(Cc3ccnc4c3c(Cl)cn4CCOCCOC)C2=O)ccc1OC [SC0150] | 2.2 nM
15 | CCCCCOc1cc(N2CC[C@H](C)N(Cc3ccnc4c3c(Cl)cn4C3COC3)C2=O)ccc1OC [SC0151] | 2.2 nM
16 | COc1cc(CC(=O)N[C@H]2CNC[C@H]2F)ccc1CN1C(=O)N(c2ccc(OC)c(OCCCC3CC3)c2)CC[C@@H]1C [SC0152] | 2.3 nM
17 | CCCCCOc1cc(N2CC[C@H](C)N(Cc3ccc(CC(=O)N4CCOC(CN(C)C)C4)cc3OC)C2=O)ccc1OC (stereo partly shown) [SC0153] | 2.3 nM
18 | COc1cc(Cc2ncccn2)ccc1CN1C(=O)N(c2ccc(OC)c(OCCCC3CC3)c2)CC[C@@H]1C [SC0157] | 2.6 nM
19 | COc1cc(CC(=O)N[C@H]2CN(C(=O)OC(C)(C)C)C[C@H]2F)ccc1CN1C(=O)N(c2ccc(OC)c(OCCCC3CC3)c2)CC[C@@H]1C [SC0160] | 2.7 nM
20 | COc1cc(CC(=O)N(C)[C@H]2CCNC2)ccc1CN1C(=O)N(c2ccc(OC)c(OCCCC3CC3)c2)CC[C@@H]1C [SC0161] | 2.8 nM
21 | COc1cc(CC(=O)N(C)[C@H]2CCN(CCF)C2)ccc1CN1C(=O)N(c2ccc(OC)c(OCCCC3CC3)c2)CC[C@@H]1C [SC0165] | 3 nM
22 | COc1cc(CC(=O)N[C@@H]2CCNC2)ccc1CN1C(=O)N(c2ccc(OC)c(OCCCC3CC3)c2)CC[C@@H]1C [SC0166] | 3.1 nM
23 | CCCCCOc1cc(N2CC[C@H](C)N(Cc3ccc(CC(=O)N(C)C)cc3OC)C2=O)ccc1OC [SC0173] | 4.2 nM
24 | CCCCCOc1cc(N2CC[C@H](C)N(Cc3ccnc4c3c(Cl)cn4CC(=O)N(C)C)C2=O)c(F)cc1OC [SC0175] | 4.4 nM
25 | CCCCCOc1cc(N2C[C@H](CO)CN(Cc3ccc(CC(=O)N(C)C)cc3OC)C2=O)ccc1OC [SC0176] | 4.5 nM

Row | SMILES | IC50
26 | COc1cc(CCO)ccc1CN1C(=O)N(c2ccc(OC)c(OCCCC3CC3)c2)CC[C@@H]1C [SC0180] | 4.9 nM
27 | CCCCCOc1cc(N2CC[C@H](C)N(Cc3cccc4c3c(Cl)c(Cl)n4CC(=O)N(C)C)C2=O)ccc1OC [SC0181] | 5.1 nM
28 | COc1cc(CCN2CCOCC2)ccc1CN1C(=O)N(c2ccc(OC)c(OCCCC3CC3)c2)CC[C@@H]1C [SC0182] | 5.2 nM
29 | COc1cc(CC(=O)N[C@@H]2CN(C(=O)OC(C)(C)C)C[C@@H]2F)ccc1CN1C(=O)N(c2ccc(OC)c(OCCCC3CC3)c2)CC[C@@H]1C [SC0185] | 5.7 nM
30 | COc1cc(CC(=O)N[C@@H]2CCN(C(=O)OC(C)(C)C)C2)ccc1CN1C(=O)N(c2ccc(OC)c(OCCCC3CC3)c2)CC[C@@H]1C [SC0187] | 6.1 nM
31 | COc1cc(CC(=O)N(C)[C@H]2CCN(C(=O)OC(C)(C)C)C2)ccc1CN1C(=O)N(c2ccc(OC)c(OCCCC3CC3)c2)CC[C@@H]1C [SC0188] | 6.4 nM
32 | CCCCCOc1cc(N2CC(CO)CN(Cc3ccc(CNC(C)=O)cc3OC)C2=O)ccc1OC (stereo not shown) [SC0189] | 7 nM
33 | COc1cc(CC(=O)N2CCCC2)ccc1CN1CC(C)CN(c2ccc(OC)c(OCCCC3CC3)c2)C1=O (stereo not shown) [SC0191] | 7.3 nM
34 | COc1cc(CC(=O)O)ccc1CN1C(=O)N(c2ccc(OC)c(OCCCC3CC3)c2)CC[C@@H]1C [SC0192] | 7.8 nM
35 | CCCCCOc1cc(N2C[C@H](C)CN(Cc3ccc(CC(=O)N4CCOCC4)cc3OC)C2=O)ccc1OC [SC0193] | 8.3 nM
36 | COc1cc(CC(=O)N(C)C)ccc1CN1CC(C)CN(c2ccc(OC)c(OCCCC3CC3)c2)C1=O (stereo not shown) [SC0194] | 8.5 nM
37 | CCCCCOc1cc(N2CC[C@H](C)N(Cc3cccc(OC)c3O)C2=O)ccc1OC [SC0195] | 8.5 nM
38 | COc1cc(CCN2CC3(COC3)C2)ccc1CN1C(=O)N(c2ccc(OC)c(OCCCC3CC3)c2)CC[C@@H]1C [SC0196] | 8.6 nM
39 | CCCCCOc1cc(N2CC[C@H](C)N(Cc3ccc(CCO)cc3OC)C2=O)ccc1OC [SC0197] | 9.1 nM
40 | CCCCCOc1cc(N2CC(C)CN(Cc3ccc(CNC(C)=O)cc3OC)C2=O)ccc1OC (stereo not shown) [SC0198] | 9.7 nM
41 | CCCCCOc1cc(N2CC(C(N)=O)CN(Cc3ccc(CNC(C)=O)cc3OC)C2=O)ccc1OC (stereo not shown) [SC0199] | 9.8 nM
42 | CCCCCOc1cc(N2CC(C)CN(Cc3ccc(CNC(=O)OC)cc3OC)C2=O)ccc1OC (stereo not shown) [SC0200] | 9.9 nM
43 | CCCCCOc1cc(N2C[C@@H](C)CN(Cc3ccc(CC(=O)N4CCOCC4)cc3OC)C2=O)ccc1OC [SC0201] | 10 nM
44 | COc1cc(CC(=O)N(C)[C@@H]2CCN(C(=O)OC(C)(C)C)C2)ccc1CN1C(=O)N(c2ccc(OC)c(OCCCC3CC3)c2)CC[C@@H]1C [SC0202] | 10.1 nM
45 | COc1ccc(N2CC[C@H](C)N(Cc3cccc4c3ccn4CC(=O)N(C)C)C2=O)cc1OCCCCC1CC1 [SC0203] | 10.2 nM
46 | COc1ccc(N2CC[C@H](C)N(Cc3cccc4c3ccn4CC(=O)N(C)C)C2=O)cc1OCCCC1CCC1 [SC0205] | 11.4 nM
47 | CCCCCOc1cc(N2C[C@@H](CO)CN(Cc3ccc(CC(=O)N(C)C)cc3OC)C2=O)ccc1OC [SC0206] | 11.7 nM
48 | CCCCCOc1cc(N2C[C@H](C)CN(Cc3ccc(CC(=O)N4CCCC4)cc3OC)C2=O)ccc1OC [SC0207] | 11.8 nM
49 | COc1ccc(N2CC[C@H](C)N(Cc3ccnc4c3ccn4CC(=O)N(C)C)C2=O)cc1OCCCC1CC1 [SC0208] | 12.6 nM
50 | CCCCCOc1cc(N2C[C@H](C)CN(Cc3ccc(CC(=O)N(C)C)cc3OC)C2=O)ccc1OC [SC0209] | 12.6 nM

Row | SMILES | IC50
51 | CCCCCOc1cc(N2C[C@@H](C)CN(Cc3ccc(CC(=O)N(C)C)cc3OC)C2=O)ccc1OC [SC0210] | 15.1 nM
52 | CCCCCOc1cc(N2CC[C@@H](C)N(Cc3cccc4c3ccn4CC(=O)OCC)C2=O)ccc1OC [SC0211] | 15.6 nM
53 | CCCCCOc1cc(N2C[C@@H](C)CN(Cc3ccc(CC(=O)N4CCCC4)cc3OC)C2=O)ccc1OC [SC0212] | 16.5 nM
54 | CCCCCOc1cc(N2C[C@@H](C(N)=O)CN(Cc3cc(F)ccc3OC)C2=O)ccc1OC [SC0213] | 18.2 nM
55 | CCCCCOc1cc(N2CC[C@@H](C)N(Cc3cccc4[nH]ccc34)C2=O)ccc1OC [SC0214] | 18.2 nM
56 | CCCCCOc1cc(N2C[C@H](C(N)=O)CN(Cc3cc(F)ccc3OC)C2=O)ccc1OC [SC0215] | 18.6 nM
57 | COc1cc(CC(=O)N[C@H]2CCN(C(=O)OC(C)(C)C)C2)ccc1CN1C(=O)N(c2ccc(OC)c(OCCCC3CC3)c2)CC[C@@H]1C [SC0216] | 19.6 nM
58 | CCCCCOc1cc(N2C[C@H](C(=O)NC)CN(Cc3cc(F)ccc3OC)C2=O)ccc1OC [SC0217] | 25.3 nM
59 | CCCCCOc1cc(N2CC[C@H](C)N(Cc3cccc4c3cc(C)n4CC(=O)N(C)C)C2=O)ccc1OC [SC0218] | 34.4 nM
60 | CCCCCOc1cc(N2CC[C@H](C)N(Cc3ccnc4[nH]ccc34)C2=O)ccc1OC [SC0219] | 40 nM
61 | CCCCCOc1cc(N2CC(C)(C)CN(Cc3ccc(CC(=O)N(C)C)cc3OC)C2=O)ccc1OC [SC0220] | 42.1 nM
62 | COc1cc(CC(=O)O)ccc1CN1CC(C)CN(c2ccc(OC)c(OCCCC3CC3)c2)C1=O (stereo not shown) [SC0221] | 54.4 nM
63 | CCCCCOc1cc(N2CC(CO)CN(Cc3ccc(CC(=O)O)cc3OC)C2=O)ccc1OC (stereo not shown) [SC0222] | 74.1 nM
64 | CCCCCOc1cc(N2C[C@@H](C(=O)NC)CN(Cc3cc(F)ccc3OC)C2=O)ccc1OC [SC0223] | 96.9 nM
65 | CCCCCOc1cc(N2CC(CO)CN(Cc3ccc(C#N)cc3OC)C2=O)ccc1OC (stereo not shown) [SC0224] | 98.5 nM
66 | COc1ccc(N2CC[C@H](C)N(Cc3cccc4c3ccn4S(=O)(=O)c3ccc(C)cc3)C2=O)cc1OCCCC1CC1 [SC0225] | 110 nM
67 | C=C1CN(Cc2ccc(C#N)cc2OC)C(=O)N(c2ccc(OC)c(OCCCCC)c2)C1 [SC0226] | 132 nM
68 | CCCCCOc1cc(N2CC[C@@H](C)N(Cc3cccc4c3ccn4CC(=O)O)C2=O)ccc1OC [SC0227] | 135 nM
69 | CCCCCOc1cc(N2CC(C)CN(Cc3ccc(C#N)cc3OC)C2=O)ccc1OC (stereo not shown) [SC0228] | 211 nM
70 | CCCCCOc1cc(N2CC(COCc3ccccc3)CN(Cc3ccc(CC(=O)O)cc3OC)C2=O)ccc1OC (stereo not shown) [SC0229] | 371 nM
71 | CCCCCOc1cc(N2CC[C@@H](C)N(Cc3cccc4c3ccn4S(=O)(=O)c3ccc(C)cc3)C2=O)ccc1OC [SC0230] | 703 nM
72 | CCCCCOc1cc(N2CC[C@@H](C)NC2=O)ccc1OC [SC0231] | 2660 nM
73 | CCCCCOc1cc(N2CC(COCc3ccccc3)CN(Cc3ccc(Br)cc3OC)C2=O)ccc1OC (stereo not shown) [SC0232] | 3120 nM

Reference: patent publication US20230115176A1 (Ra Pharmaceuticals, Inc., priority 2019, published 2023)
